Source: article PMC7575681 (EJNMMI Research, 2020)

Tests used:
[1] = set-up: method as in PMID 21498533; details: cited from earlier work
[2] = Micro-PET/CT brain imaging in ICR mice with thiamine deficiency (TD) and control mice; assay type: in vivo; details: control mice (C57BL/6 and ICR, Fig. 3a, c)
Description: Eight-week-old male C57BL/6 and ICR mice were randomly divided into two groups: TD mouse models (n = 2 for C57BL/6, one died due to anesthesia during micro-PET/CT scanning; n = 3 for ICR) were established by feeding thiamine-deprived diet (Trophic Animal Feed High-tech Co., Ltd., China). Control mice (n = 3 for each strain) were fed the general diet. Twenty-eight days later, all mice received PET/CT scanning.
The animals were anesthetized by inhaling 1.5–2% of isoflurane in air (1.5 L/min) and received CT scan for acquiring structure image and attenuation correction data. […] Brain PET imaging was immediately performed and dynamically acquired for 90 min with an energy window of 350–650 KeV and a time window of 3.438 ns. […] Dynamic images were reconstructed by OSEM3D/SP-MAP algorithm with two iterations. After scanning, the mice were sacrificed.

Compound | SUV in the brains of mice [1] | SUVs in the brains [2]
OC[C@H]1OC(O)[C@H]([18F])[C@@H](O)[C@@H]1O (some centres unmarked) [FDG, [^18F]-fluorodeoxyglucose] | 1–2 | 
^18F-deoxy-thiamine |  | less than 0.4
